From PubChem BioAssay AID1963868 (Molecular Pharmacology Branch, DTP, NCI, 2024)
“And” between values parts separate entries of the source, which are not always exact repeats. Equal entries are not always repeated.

Tested on: KRAS PDC tumor spheroids (HUVEC+MSC), viability
Experiment: Anticancer human tumor 254851-301-R-J1-PDC patient-derived colon carcinoma cell line growth inhibition [KRAS2]
Conditions: for viability, T/C: stronger effect = lower value
How it was run: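 Combination screen of spheroid viability in tumor-cell co-cultures with endothelial (HUVEC) and mesenchymal stem cell stroma. Each agent was tested in half-log dilutions, topping at clinical Cmax or at 10 microM without a known Cmax.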

[1] = curve of first compound, second compound 0.1 µM
[2] = curve of first compound, second compound 0.316 µM
[3] = curve of first compound, second compound 1 µM
[4] = curve of first compound, second compound 3.16 µM
[5] = curve of first compound, second compound 10 µM
[6] = second compound 0.1 µM, first compound 0.01 µM
[7] = second compound 0.1 µM, first compound 0.0316 µM
[8] = second compound 0.1 µM, first compound 0.1 µM
[9] = second compound 0.1 µM, first compound 0.316 µM
[10] = second compound 0.1 µM, first compound 1 µM
[11] = second compound 0.316 µM, first compound 0.01 µM
[12] = second compound 0.316 µM, first compound 0.0316 µM
[13] = second compound 0.316 µM, first compound 0.1 µM
[14] = second compound 0.316 µM, first compound 0.316 µM
[15] = second compound 0.316 µM, first compound 1 µM
[16] = second compound 1 µM, first compound 0.01 µM
[17] = second compound 1 µM, first compound 0.0316 µM
[18] = second compound 1 µM, first compound 0.1 µM
[19] = second compound 1 µM, first compound 0.316 µM
[20] = second compound 1 µM, first compound 1 µM
[21] = second compound 3.16 µM, first compound 0.01 µM
[22] = second compound 3.16 µM, first compound 0.0316 µM
[23] = second compound 3.16 µM, first compound 0.1 µM
[24] = second compound 3.16 µM, first compound 0.316 µM
[25] = second compound 3.16 µM, first compound 1 µM
[26] = second compound 10 µM, first compound 0.0316 µM
[27] = second compound 10 µM, first compound 0.1 µM
[28] = second compound 10 µM, first compound 0.316 µM
[29] = second compound 10 µM, first compound 1 µM
[30] = second compound 0.1 µM, first compound 3.16 µM
[31] = second compound 0.316 µM, first compound 3.16 µM
[32] = second compound 1 µM, first compound 3.16 µM
[33] = second compound 3.16 µM, first compound 3.16 µM
[34] = second compound 0.1 µM, first compound 10 µM
[35] = second compound 0.316 µM, first compound 10 µM
[36] = second compound 1 µM, first compound 10 µM
[37] = second compound 3.16 µM, first compound 10 µM
[38] = second compound 10 µM, first compound 3.16 µM
[39] = second compound 10 µM, first compound 10 µM
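Also: spheroids exposed to compounds for seven days before readout.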
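For viability, T/C in this document: 100% = DMSO vehicle control luminescence of the spheroids.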

SMILES: CCN1CCN(Cc2ccc(Nc3ncc(F)c(-c4cc(F)c5nc(C)n(C(C)C)c5c4)n3)nc2)CC1 + C=CC(=O)N1CCN(c2nc(=O)n(-c3c(C)ccnc3C(C)C)c3nc(-c4c(O)cccc4F)c(F)cc23)C(C)C1
- IC50 [1]: 960 nM
- IC50 [2]: > 1000 nM
- IC50 [3]: > 1000 nM
- IC50 [4]: 707 nM
- IC50 [5]: > 1000 nM
- viability, T/C (second compound 0.1 µM, first compound 0.00316 µM): 114%
- viability, T/C [6]: 101%
- viability, T/C [7]: 96.9%
- viability, T/C [8]: 83.2%
- viability, T/C [9]: 73.2%
- viability, T/C [10]: 47.1%
- viability, T/C (second compound 0.316 µM, first compound 0.00316 µM): 113%
- viability, T/C [11]: 107%
- viability, T/C [12]: 90.4%
- viability, T/C [13]: 82.6%
- viability, T/C [14]: 73.2%
- viability, T/C [15]: 50.9%
- viability, T/C (second compound 1 µM, first compound 0.00316 µM): 104%
- viability, T/C [16]: 101%
- viability, T/C [17]: 92.8%
- viability, T/C [18]: 78.2%
- viability, T/C [19]: 75.7%
- viability, T/C [20]: 48.4%
- viability, T/C (second compound 3.16 µM, first compound 0.00316 µM): 89.5%
- viability, T/C [21]: 87.4%
- viability, T/C [22]: 97.1%
- viability, T/C [23]: 59.7%
- viability, T/C [24]: 71.4%
- viability, T/C [25]: 42.6%
- viability, T/C (second compound 10 µM, first compound 0.00316 µM): 96.4%
- viability, T/C (second compound 10 µM, first compound 0.01 µM): 105%
- viability, T/C [26]: 102%
- viability, T/C [27]: 83.2%
- viability, T/C [28]: 73.8%
- viability, T/C [29]: 56%

SMILES: CC(=O)Nc1cccc(-n2c(=O)n(C3CC3)c(=O)c3c(Nc4ccc(I)cc4F)n(C)c(=O)c(C)c32)c1
- viability, T/C (compound 0.0001 µM): 105% [middle of 5 runs]
- viability, T/C (compound 0.000316 µM): 96.8% [middle of 5 runs]
- viability, T/C (compound 0.001 µM): 91.9% [middle of 5 runs]
- viability, T/C (compound 0.00316 µM): 75.8% [middle of 5 runs]
- viability, T/C (compound 0.01 µM): 26.8% [middle of 5 runs]
- viability, T/C (compound 0.0316 µM): 3.1% [middle of 5 runs]
- IC50 (curve of compound): 5.78 nM [middle of 5 runs]

SMILES: CC(=O)OC12COC1CC(O)C1(C)C(=O)C(O)C3=C(C)C(OC(=O)C(O)C(NC(=O)OC(C)(C)C)c4ccccc4)CC(O)(C(OC(=O)c4ccccc4)C21)C3(C)C (stereo unspecified) + C=CC(=O)N1CCN(c2nc(OCC3CCCN3C)nc3c2CCN(c2cccc4cccc(C)c24)C3)CC1CC#N
- IC50 (curve of first compound, second compound 0.0316 µM): 206 nM
- IC50 [1]: 198 nM
- IC50 [2]: 163 nM
- IC50 [3]: 140 nM
- IC50 [4]: 203 nM
- viability, T/C (second compound 0.0316 µM, first compound 0.01 µM): 102%
- viability, T/C (second compound 0.0316 µM, first compound 0.0316 µM): 95.9%
- viability, T/C (second compound 0.0316 µM, first compound 0.1 µM): 69.3%
- viability, T/C (second compound 0.0316 µM, first compound 0.316 µM): 38.4%
- viability, T/C (second compound 0.0316 µM, first compound 1 µM): 29%
- viability, T/C (second compound 0.0316 µM, first compound 3.16 µM): 26.1%
- viability, T/C [6]: 99.1%
- viability, T/C [7]: 91.2%
- viability, T/C [8]: 61.4%
- viability, T/C [9]: 43%
- viability, T/C [10]: 27.3%
- viability, T/C [30]: 25.6%
- viability, T/C [11]: 98.1%
- viability, T/C [12]: 88%
- viability, T/C [13]: 60.8%
- viability, T/C [14]: 35.4%
- viability, T/C [15]: 26.5%
- viability, T/C [31]: 24.3%
- viability, T/C [16]: 93%
- viability, T/C [17]: 94.5%
- viability, T/C [18]: 56.2%
- viability, T/C [19]: 34%
- viability, T/C [20]: 24.4%
- viability, T/C [32]: 22.9%
- viability, T/C [21]: 94.3%
- viability, T/C [22]: 86.7%
- viability, T/C [23]: 69.1%
- viability, T/C [24]: 38.5%
- viability, T/C [25]: 24.2%
- viability, T/C [33]: 23.7%

SMILES: CN(C)C/C=C/C(=O)Nc1cc2c(Nc3ccc(F)c(Cl)c3)ncnc2cc1O[C@H]1CCOC1
- viability, T/C (compound 0.000316 µM): 104% [middle of 5 runs]
- viability, T/C (compound 0.001 µM): 108% [middle of 5 runs]
- viability, T/C (compound 0.00316 µM): 104% [middle of 5 runs]
- viability, T/C (compound 0.01 µM): 96.8% [middle of 5 runs]
- viability, T/C (compound 0.0316 µM): 97.6% [middle of 5 runs]
- viability, T/C (compound 0.1 µM): 81.5% [middle of 5 runs]
- IC50 (curve of compound): > 100 nM

SMILES: CC1(C)CCC(CN2CCN(c3ccc(C(=O)NS(=O)(=O)c4ccc(NCC5CCOCC5)c([N+](=O)[O-])c4)c(Oc4cnc5[nH]ccc5c4)c3)CC2)=C(c2ccc(Cl)cc2)C1 + CNCc1ccccc1-c1csc(C(C)Nc2nc(C)nc3cc(OC)c(OC)cc23)c1
- IC50 [1]: > 10000 nM
- IC50 [2]: > 10000 nM
- IC50 [3]: 3120 nM
- IC50 [4]: 1110 nM
- IC50 [5]: < 31.6 nM
- viability, T/C [7]: 100%
- viability, T/C [8]: 104%
- viability, T/C [9]: 100%
- viability, T/C [10]: 94.8%
- viability, T/C [30]: 94%
- viability, T/C [34]: 86%
- viability, T/C [12]: 91.9%
- viability, T/C [13]: 102%
- viability, T/C [14]: 99.7%
- viability, T/C [15]: 100%
- viability, T/C [31]: 87.7%
- viability, T/C [35]: 81.2%
- viability, T/C [17]: 93.3%
- viability, T/C [18]: 102%
- viability, T/C [19]: 92.9%
- viability, T/C [20]: 83.2%
- viability, T/C [32]: 49.6%
- viability, T/C [36]: 16.4%
- viability, T/C [22]: 80.4%
- viability, T/C [23]: 75.1%
- viability, T/C [24]: 71.6%
- viability, T/C [25]: 55%
- viability, T/C [33]: 1.17%
- viability, T/C [37]: 0.61%
- viability, T/C [26]: 0.17%
- viability, T/C [27]: 0.2%
- viability, T/C [28]: 0.17%
- viability, T/C [29]: 0.15%
- viability, T/C [38]: 0.12%
- viability, T/C [39]: 0.17%

SMILES: CC1(C)CCC(CN2CCN(c3ccc(C(=O)NS(=O)(=O)c4ccc(NCC5CCOCC5)c([N+](=O)[O-])c4)c(Oc4cnc5[nH]ccc5c4)c3)CC2)=C(c2ccc(Cl)cc2)C1
- viability, T/C (compound 0.0316 µM): 103% [middle of 5 runs]
- viability, T/C (compound 0.1 µM): 102% [middle of 5 runs]
- viability, T/C (compound 0.316 µM): 101% [middle of 5 runs]
- viability, T/C (compound 1 µM): 102% [middle of 5 runs]
- viability, T/C (compound 3.16 µM): 96.3% [middle of 5 runs]
- viability, T/C (compound 10 µM): 92.8% [middle of 5 runs]
- IC50 (curve of compound): > 10000 nM

SMILES: CCNC(=O)CC1N=C(c2ccc(Cl)cc2)c2cc(OC)ccc2-n2c(C)nnc21 (stereo unspecified)
- viability, T/C (compound 0.0316 µM): 110% [middle of 5 runs]
- viability, T/C (compound 0.1 µM): 100% [middle of 5 runs]
- viability, T/C (compound 0.316 µM): 90.8% [middle of 5 runs]
- viability, T/C (compound 1 µM): 88.9% [middle of 5 runs]
- IC50 (curve of compound): > 10000 nM and 4980 nM

SMILES: CC1(C)CCC(CN2CCN(c3ccc(C(=O)NS(=O)(=O)c4ccc(NCC5CCOCC5)c([N+](=O)[O-])c4)c(Oc4cnc5[nH]ccc5c4)c3)CC2)=C(c2ccc(Cl)cc2)C1 + COc1cc2nc(C)nc(NC(C)c3cc(N)cc(C(F)(F)F)c3)c2cc1OC1CCOC1
- IC50 [1]: > 10000 nM
- IC50 [2]: > 10000 nM
- IC50 [3]: > 10000 nM
- IC50 [4]: 3720 nM
- IC50 [5]: 1730 nM
- viability, T/C [7]: 103%
- viability, T/C [8]: 95%
- viability, T/C [9]: 95.7%
- viability, T/C [10]: 97.6%
- viability, T/C [30]: 91.2%
- viability, T/C [34]: 83.2%
- viability, T/C [12]: 86.5%
- viability, T/C [13]: 83.9%
- viability, T/C [14]: 92%
- viability, T/C [15]: 79.3%
- viability, T/C [31]: 88.6%
- viability, T/C [35]: 66.4%
- viability, T/C [17]: 88.7%
- viability, T/C [18]: 88.1%
- viability, T/C [19]: 79.8%
- viability, T/C [20]: 78.1%
- viability, T/C [32]: 74.9%
- viability, T/C [36]: 49.2%
- viability, T/C [22]: 82.2%
- viability, T/C [23]: 89.3%
- viability, T/C [24]: 81.2%
- viability, T/C [25]: 76.4%
- viability, T/C [33]: 53.3%
- viability, T/C [37]: 29.6%
- viability, T/C [26]: 86.6%
- viability, T/C [27]: 83.8%
- viability, T/C [28]: 72.5%
- viability, T/C [29]: 73.9%
- viability, T/C [38]: 24.2%
- viability, T/C [39]: 6.7%
